Reference: ChEMBL document CHEMBL6182925 (J Med Chem, 2025)
Converted amounts (≈) assume the structure as drawn.

Key:
[1] = Kinetic solubility of compound at pH 2; format: physicochemical; details: buffer, read-out: Kinetic_solubility
[2] = molecular target: Hepatocyte growth factor receptor (Homo sapiens, UniProt P08581, D1228N); test: Inhibition of N-terminal GST-tagged recombinant human c-MET D1228N mutant (956 to end residues) extracted from baculovirus infected Sf9 cells using 5-FAM-KKKKEEIYFFF-CONH2 as substrate preincubated for 30 mins followed by ATP addition measured after 60 mins by fluorescence-based microfluidic mobility shift assay
Chain of Hepatocyte growth factor receptor (Homo sapiens, UniProt P08581, D1228N) (P08581 25-1390 D1228N limits assumed): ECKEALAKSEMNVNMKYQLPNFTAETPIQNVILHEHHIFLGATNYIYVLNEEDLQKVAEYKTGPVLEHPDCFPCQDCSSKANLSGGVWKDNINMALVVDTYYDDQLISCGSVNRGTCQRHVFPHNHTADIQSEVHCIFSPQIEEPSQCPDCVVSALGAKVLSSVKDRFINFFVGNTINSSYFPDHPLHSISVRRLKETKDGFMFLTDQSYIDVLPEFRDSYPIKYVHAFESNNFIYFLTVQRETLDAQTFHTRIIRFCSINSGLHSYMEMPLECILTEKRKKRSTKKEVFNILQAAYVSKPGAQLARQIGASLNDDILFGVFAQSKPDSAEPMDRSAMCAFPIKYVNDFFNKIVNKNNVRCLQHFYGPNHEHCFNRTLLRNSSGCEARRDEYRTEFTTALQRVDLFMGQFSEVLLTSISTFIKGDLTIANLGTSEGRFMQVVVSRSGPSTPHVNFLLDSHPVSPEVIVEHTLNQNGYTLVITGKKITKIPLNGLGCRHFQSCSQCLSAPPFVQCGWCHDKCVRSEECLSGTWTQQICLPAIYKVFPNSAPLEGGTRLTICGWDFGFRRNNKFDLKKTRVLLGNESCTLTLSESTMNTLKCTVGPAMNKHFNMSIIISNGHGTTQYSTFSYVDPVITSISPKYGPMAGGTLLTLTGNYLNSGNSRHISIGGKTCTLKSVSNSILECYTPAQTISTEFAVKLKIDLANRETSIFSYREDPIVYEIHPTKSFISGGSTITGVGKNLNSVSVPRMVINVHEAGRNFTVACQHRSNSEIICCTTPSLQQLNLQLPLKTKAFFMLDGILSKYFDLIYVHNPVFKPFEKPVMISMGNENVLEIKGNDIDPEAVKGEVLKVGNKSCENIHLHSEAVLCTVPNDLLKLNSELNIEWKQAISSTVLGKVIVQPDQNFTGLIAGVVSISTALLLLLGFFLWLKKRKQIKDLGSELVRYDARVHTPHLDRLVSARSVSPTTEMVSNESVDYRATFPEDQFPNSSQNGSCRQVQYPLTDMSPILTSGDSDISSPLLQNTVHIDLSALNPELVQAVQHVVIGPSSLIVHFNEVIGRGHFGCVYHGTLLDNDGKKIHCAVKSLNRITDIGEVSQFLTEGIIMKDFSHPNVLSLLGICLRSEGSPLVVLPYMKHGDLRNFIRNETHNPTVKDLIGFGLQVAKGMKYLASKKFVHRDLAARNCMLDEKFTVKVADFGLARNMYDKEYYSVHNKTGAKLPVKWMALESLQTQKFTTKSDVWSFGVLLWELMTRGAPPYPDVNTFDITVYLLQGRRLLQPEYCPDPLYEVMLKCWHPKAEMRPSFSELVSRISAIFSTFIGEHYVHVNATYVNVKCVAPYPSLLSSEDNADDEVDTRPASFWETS

[3] = Kinetic solubility of compound at pH 4.5; format: physicochemical; details: buffer, read-out: Kinetic_solubility
[4] = system: BaF3; test: cells; details: Mus musculus, BaF3, 72 h
[5] = cells; details: Mus musculus, BaF3/TRP-Met, 72 h
[6] = molecular target: Hepatocyte growth factor receptor (Homo sapiens, UniProt P08581); test: Inhibition of N-terminal GST-tagged wild-type human c-MET (956 to 1390 residues) extracted from baculovirus infected Sf21 cells using 5-FAM-KKKKEEIYFFF-CONH2 as substrate preincubated for 30 mins followed by ATP addition measured after 60 mins by fluorescence-based microfluidic mobility shift assay
Chain of Hepatocyte growth factor receptor (Homo sapiens, UniProt P08581) (P08581 whole entry, the tested form may be a part): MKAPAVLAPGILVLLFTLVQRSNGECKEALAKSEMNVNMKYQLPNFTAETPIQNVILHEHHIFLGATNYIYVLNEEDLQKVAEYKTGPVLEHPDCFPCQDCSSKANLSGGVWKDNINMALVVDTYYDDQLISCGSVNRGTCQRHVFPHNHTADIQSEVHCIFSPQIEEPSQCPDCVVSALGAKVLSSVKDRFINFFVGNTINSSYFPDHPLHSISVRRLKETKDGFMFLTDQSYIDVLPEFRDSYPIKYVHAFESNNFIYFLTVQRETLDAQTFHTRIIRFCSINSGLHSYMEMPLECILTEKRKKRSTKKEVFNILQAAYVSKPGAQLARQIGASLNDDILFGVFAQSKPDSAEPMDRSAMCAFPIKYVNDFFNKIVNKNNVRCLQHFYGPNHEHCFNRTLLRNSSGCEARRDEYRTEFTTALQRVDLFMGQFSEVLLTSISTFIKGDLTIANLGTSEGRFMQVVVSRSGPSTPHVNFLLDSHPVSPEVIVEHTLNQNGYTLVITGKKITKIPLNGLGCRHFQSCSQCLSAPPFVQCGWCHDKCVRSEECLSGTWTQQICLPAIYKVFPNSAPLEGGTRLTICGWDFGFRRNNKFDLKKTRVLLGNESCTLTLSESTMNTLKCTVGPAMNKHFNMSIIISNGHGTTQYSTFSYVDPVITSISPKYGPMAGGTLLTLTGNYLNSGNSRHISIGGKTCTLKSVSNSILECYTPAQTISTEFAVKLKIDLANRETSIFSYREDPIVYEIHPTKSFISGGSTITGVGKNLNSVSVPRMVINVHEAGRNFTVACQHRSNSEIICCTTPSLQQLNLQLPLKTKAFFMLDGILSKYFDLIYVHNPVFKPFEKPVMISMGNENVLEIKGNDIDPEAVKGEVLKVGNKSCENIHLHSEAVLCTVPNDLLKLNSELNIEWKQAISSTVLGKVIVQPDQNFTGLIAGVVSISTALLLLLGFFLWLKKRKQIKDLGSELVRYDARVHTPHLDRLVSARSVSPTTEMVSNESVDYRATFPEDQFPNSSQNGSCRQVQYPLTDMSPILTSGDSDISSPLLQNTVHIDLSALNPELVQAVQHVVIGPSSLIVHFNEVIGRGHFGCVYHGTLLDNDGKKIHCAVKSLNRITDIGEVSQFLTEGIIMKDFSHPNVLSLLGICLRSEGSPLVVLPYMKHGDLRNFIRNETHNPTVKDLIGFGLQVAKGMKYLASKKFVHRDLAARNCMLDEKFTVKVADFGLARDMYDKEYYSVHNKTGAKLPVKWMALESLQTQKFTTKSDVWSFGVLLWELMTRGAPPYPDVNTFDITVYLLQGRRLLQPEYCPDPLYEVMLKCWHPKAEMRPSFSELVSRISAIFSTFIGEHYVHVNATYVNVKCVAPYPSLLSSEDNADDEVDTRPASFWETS

[7] = molecular target: Vascular endothelial growth factor receptor 2 (Homo sapiens, UniProt P35968); test: Inhibition of KDR (unknown origin) by fluorescence-based microfluidic mobility shift assay
Chain of Vascular endothelial growth factor receptor 2 (P35968 whole entry): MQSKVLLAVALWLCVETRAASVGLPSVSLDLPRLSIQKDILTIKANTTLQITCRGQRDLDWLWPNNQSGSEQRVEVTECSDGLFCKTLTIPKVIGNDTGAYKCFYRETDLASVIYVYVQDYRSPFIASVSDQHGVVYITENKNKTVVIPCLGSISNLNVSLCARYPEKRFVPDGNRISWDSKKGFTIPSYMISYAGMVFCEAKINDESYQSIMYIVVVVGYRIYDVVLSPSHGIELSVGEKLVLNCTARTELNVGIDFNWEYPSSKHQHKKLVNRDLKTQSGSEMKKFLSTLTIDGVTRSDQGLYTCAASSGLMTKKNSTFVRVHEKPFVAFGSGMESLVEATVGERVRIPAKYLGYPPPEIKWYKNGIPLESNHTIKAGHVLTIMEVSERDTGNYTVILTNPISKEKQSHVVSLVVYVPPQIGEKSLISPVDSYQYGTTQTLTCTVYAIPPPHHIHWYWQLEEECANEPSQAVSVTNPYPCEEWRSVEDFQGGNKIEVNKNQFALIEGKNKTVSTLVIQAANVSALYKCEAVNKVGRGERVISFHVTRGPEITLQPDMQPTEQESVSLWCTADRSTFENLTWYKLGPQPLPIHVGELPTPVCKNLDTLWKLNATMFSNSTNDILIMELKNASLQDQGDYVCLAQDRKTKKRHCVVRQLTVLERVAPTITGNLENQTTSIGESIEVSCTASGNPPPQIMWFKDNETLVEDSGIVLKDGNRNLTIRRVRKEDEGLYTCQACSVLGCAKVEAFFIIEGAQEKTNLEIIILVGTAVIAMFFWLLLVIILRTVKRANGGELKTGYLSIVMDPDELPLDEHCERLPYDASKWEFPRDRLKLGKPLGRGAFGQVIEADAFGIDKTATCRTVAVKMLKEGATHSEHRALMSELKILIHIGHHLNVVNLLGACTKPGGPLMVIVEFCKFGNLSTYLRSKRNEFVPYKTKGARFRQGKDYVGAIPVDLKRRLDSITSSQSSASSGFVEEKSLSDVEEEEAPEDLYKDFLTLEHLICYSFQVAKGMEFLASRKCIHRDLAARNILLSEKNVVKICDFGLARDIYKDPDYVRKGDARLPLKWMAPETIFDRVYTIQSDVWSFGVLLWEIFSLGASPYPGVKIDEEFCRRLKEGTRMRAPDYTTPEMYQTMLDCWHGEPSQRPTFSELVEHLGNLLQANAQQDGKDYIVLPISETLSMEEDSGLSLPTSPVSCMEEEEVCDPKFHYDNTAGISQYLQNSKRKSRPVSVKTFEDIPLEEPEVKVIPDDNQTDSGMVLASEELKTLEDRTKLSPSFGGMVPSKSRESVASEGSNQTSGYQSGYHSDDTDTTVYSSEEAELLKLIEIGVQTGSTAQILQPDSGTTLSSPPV

[8] = system: BaF3; test: cells; details: Mus musculus, BaF3, 72 h; remark: listed apart in the source
[9] = system: BaF3; test: cells; details: Mus musculus, BaF3, 72 h; remark: listed apart in the source
[10] = system: BaF3; test: cells; details: Mus musculus, BaF3, 72 h; remark: listed apart in the source
[11] = system: BaF3; test: cells; details: Mus musculus, BaF3, 72 h; remark: listed apart in the source
[12] = system: BaF3; test: cells; details: Mus musculus, BaF3, 72 h; remark: listed apart in the source
[13] = system: BaF3; test: cells; details: Mus musculus, BaF3, 72 h; remark: listed apart in the source
[14] = system: BaF3; test: cells; details: Mus musculus, BaF3, 72 h; remark: listed apart in the source
[15] = system: BaF3; test: cells; details: Mus musculus, BaF3, 72 h; remark: listed apart in the source
[16] = system: BaF3; test: cells; details: Mus musculus, BaF3, 72 h; remark: listed apart in the source
[17] = system: BaF3; test: cells; details: Mus musculus, BaF3, 72 h; remark: listed apart in the source
[18] = system: BaF3; test: cells; details: Mus musculus, BaF3, 72 h; remark: listed apart in the source
[19] = system: BaF3; test: cells; details: Mus musculus, BaF3, 72 h; remark: listed apart in the source
[20] = system: BaF3; test: cells; details: Mus musculus, BaF3, 72 h; remark: listed apart in the source
[21] = molecular target: Cytochrome P450 3A4 (Homo sapiens, UniProt P08684); test: Inhibition of CYP3A4 (unknown origin); format: ADME
Chain of Cytochrome P450 3A4 (P08684 whole entry): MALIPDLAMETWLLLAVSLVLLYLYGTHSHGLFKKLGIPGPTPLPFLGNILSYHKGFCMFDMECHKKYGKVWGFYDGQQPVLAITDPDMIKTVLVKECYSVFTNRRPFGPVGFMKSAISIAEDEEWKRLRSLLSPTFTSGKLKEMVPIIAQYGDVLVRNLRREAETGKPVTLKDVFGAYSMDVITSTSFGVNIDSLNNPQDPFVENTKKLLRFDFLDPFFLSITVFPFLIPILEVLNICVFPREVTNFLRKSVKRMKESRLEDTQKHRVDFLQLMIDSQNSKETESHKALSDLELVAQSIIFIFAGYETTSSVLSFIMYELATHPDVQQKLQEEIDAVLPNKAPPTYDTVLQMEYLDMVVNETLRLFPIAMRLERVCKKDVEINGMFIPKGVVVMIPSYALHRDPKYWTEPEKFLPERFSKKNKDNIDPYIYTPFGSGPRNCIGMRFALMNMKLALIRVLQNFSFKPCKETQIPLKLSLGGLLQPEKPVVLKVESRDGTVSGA

| SMILES | solubility kinetic [1] [µM] | solubility kinetic [3] [µM] | EC50 [4] [nM] | EC50 [5] [nM] | EC50 [8] [nM] | EC50 [9] [nM] | EC50 [10] [nM] | EC50 [11] [nM] | EC50 [12] [nM] | EC50 [13] [nM] | EC50 [14] [nM] | EC50 [15] [nM] | EC50 [16] [nM] | EC50 [17] [nM] | EC50 [18] [nM] | EC50 [19] [nM] | EC50 [20] [nM] | IC50 [21] [nM] | further results |
| --- | --- | --- | --- | --- | --- | --- | --- | --- | --- | --- | --- | --- | --- | --- | --- | --- | --- | --- | --- |
| COc1cc2nccc(Oc3ccc(NC(=O)c4ccccc4OC)cc3F)c2cc1OC | 6.1 (≈ 2.74 µg/mL) | 1 (≈ 0.448 µg/mL) | 795 | 1320 |  |  |  |  |  |  |  |  |  |  |  |  |  |  | IC50 [2]: 2.2 nM; IC50 [6]: 4.4 nM; IC50 [7]: 250 nM |
| COc1cc2nccc(Oc3c(F)cc(NC(=O)c4cnccc4OC)cc3F)c2cc1OC | 205 (≈ 95.8 µg/mL) | 5.4 (≈ 2.52 µg/mL) | 56 | 123 |  |  |  |  |  |  |  |  |  |  |  |  |  |  |  |

Now from value to compound, other results behind:

| solubility kinetic [1] [µM] | solubility kinetic [3] [µM] | EC50 [4] [nM] | EC50 [5] [nM] | EC50 [8] [nM] | EC50 [9] [nM] | EC50 [10] [nM] | EC50 [11] [nM] | EC50 [12] [nM] | EC50 [13] [nM] | EC50 [14] [nM] | EC50 [15] [nM] | EC50 [16] [nM] | EC50 [17] [nM] | EC50 [18] [nM] | EC50 [19] [nM] | EC50 [20] [nM] | IC50 [21] [nM] | SMILES | further results |
| --- | --- | --- | --- | --- | --- | --- | --- | --- | --- | --- | --- | --- | --- | --- | --- | --- | --- | --- | --- |
| 295 (≈ 145 µg/mL) | 48 (≈ 23.6 µg/mL) | 1910 | 6.4 | 24 | 3040 | 0.6 | 123 | 3440 | 2210 | 3410 | 4.2 | 1820 | 2.3 | 183 | 2810 | 122 |  | CN1CCC(COc2cnc(-c3cccc(Cn4nc(-c5cccc(C#N)c5)ccc4=O)c3)nc2)CC1 [TEPOTINIB] |  |
| 252 (≈ 113 µg/mL) | 24 (≈ 10.8 µg/mL) | 174 | 382 |  |  |  |  |  |  |  |  |  |  |  |  |  | > 50000 | COc1cc2nccc(Oc3ccc(NC(=O)c4cnccc4OC)cc3F)c2cc1OC |  |
|  |  |  |  | 8.4 | > 10000 | 0.5 | 73 | > 10000 | > 10000 | > 10000 | 1.5 | 7400 | 0.5 | 13 | > 10000 | 74 |  | C[C@@H](c1ccc2nccn2c1)n1nnc2ncc(-c3cnn(C)c3)nc21 [SAVOLITINIB] |  |
|  |  |  |  |  |  |  |  |  |  |  |  |  |  |  |  |  | 300 | COc1cc2nccc(Oc3ccc(NC(=O)c4ccncc4OC)cc3F)c2cc1OC |  |
